Measurements: PubChem BioAssay (NCI)
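Test compounds were applied to cells in 96-well plates for 48 hours at 5 doses. GI50 is the concentration that inhibits growth by half. Definition used: TGI = concentration required for complete inhibition of growth.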 Where a SMILES comes first, the peptide text is derived from it. [ ]: non-standard residue; d: D form. The star is where a group is joined. ξ: configuration not given here. 4Abz = Nc1ccc(C(=O)O)cc1; ξL = CC(C)CC(N)C(=O)O; NHOH = ON*

Legend:
Assay in all cases: NCI-60 cell line screen, 48 h
UO-31 renal = tested on: UO-31 renal
SNB-75 CNS = tested on: SNB-75 CNS
SF-268 CNS = tested on: SF-268 CNS
M14 melanoma = tested on: M14 melanoma
NCI-H226 lung = tested on: NCI-H226 lung
KM12 colon = tested on: KM12 colon
TK-10 renal = tested on: TK-10 renal
HT29 colon = tested on: HT29 colon
HCT-15 colon = tested on: HCT-15 colon
SW-620 colon = tested on: SW-620 colon

| SMILES | GI50 (UO-31 renal) | TGI (UO-31 renal) | GI50 (SNB-75 CNS) | TGI (SNB-75 CNS) | GI50 (SF-268 CNS) | TGI (SF-268 CNS) | GI50 (M14 melanoma) | TGI (M14 melanoma) | GI50 (NCI-H226 lung) | TGI (NCI-H226 lung) | GI50 (KM12 colon) | TGI (KM12 colon) | GI50 (TK-10 renal) | TGI (TK-10 renal) | GI50 (HT29 colon) | TGI (HT29 colon) | GI50 (HCT-15 colon) | TGI (HCT-15 colon) | GI50 (SW-620 colon) | TGI (SW-620 colon) |
| --- | --- | --- | --- | --- | --- | --- | --- | --- | --- | --- | --- | --- | --- | --- | --- | --- | --- | --- | --- | --- |
| CC(C)CC(NC(=O)[C@@H]1CCCN1C(=O)CNC(=O)c1ccc(N)cc1)C(=O)N[C@H](C)C(=O)NO (some centres not stated) (H-[4Abz]GP[ξL][dA]-{NHOH}) | > 100 µM | > 100 µM | > 100 µM | > 100 µM | > 100 µM | > 100 µM | > 100 µM | > 100 µM | > 100 µM | > 100 µM | > 100 µM | > 100 µM | > 100 µM | > 100 µM | > 100 µM | > 100 µM | > 100 µM | > 100 µM | > 100 µM | > 100 µM |
| N=C(N)c1ccc(-c2ccc(-c3ccco3)o2)cc1 | 3.17 µM | 16.3 µM | 10.7 µM | 23.2 µM | 4.85 µM | 18.7 µM | 1.9 µM | 3.77 µM | 14.4 µM | 33.1 µM | 3.16 µM | 10.4 µM | 4.33 µM | 15.6 µM | 2.78 µM | 8.47 µM | 2.58 µM | 7.22 µM | 1.92 µM | 4.09 µM |
| C=CC[n+]1c(/C=C2\Sc3ccccc3N2C)sc(-c2ccccc2)c1-c1ccccc1 | 1.61 µM | 4.4 µM | 0.298 µM | – | 0.405 µM | 15.6 µM | 0.373 µM | 1.59 µM | 0.258 µM | 0.977 µM | 0.331 µM | 1.95 µM | 0.307 µM | 3.35 µM | 0.306 µM | 6.1 µM | 2.18 µM | 13.4 µM | 0.366 µM | 13.3 µM |
| O=C(c1ccc(Cl)cc1)N(C(=S)N1CCN(c2ccccc2)CC1)C1CCCCC1 | – | > 100 µM | – | > 100 µM | – | > 100 µM | – | > 100 µM | – | 20.8 µM | – | > 100 µM | – | > 100 µM | – | > 100 µM | – | > 100 µM | – | > 100 µM |
| COC1=C(C(=O)OC(C)(C)C)C23CCCCC2(C(C(=O)OC(C)(C)C)=C(OC)C3C(=O)OC(C)(C)C)C1C(=O)OC(C)(C)C (configuration not stated) | – | > 100 µM | – | > 100 µM | – | > 100 µM | – | > 100 µM | – | > 100 µM | – | > 100 µM | – | > 100 µM | – | > 100 µM | – | > 100 µM | – | > 100 µM |
| NNC(=S)N/N=C(\c1nc2ccc(Cl)cc2[nH]c1=O)C(O)c1ccc(Cl)cc1Cl (configuration not stated) | – | > 100 µM | – | > 100 µM | – | > 100 µM | – | > 100 µM | – | > 100 µM | – | > 100 µM | – | > 100 µM | – | > 100 µM | – | > 100 µM | – | > 100 µM |
| CCOC(=O)C(=C=Cc1cccs1)C(=O)c1ccccc1 | – | 27.3 µM | – | 29.8 µM | – | 33.2 µM | – | 28.2 µM | – | 32.7 µM | – | 24.7 µM | – | 28.5 µM | – | 34.5 µM | – | 30.1 µM | – | 31.9 µM |
| Nc1ccc(Cl)cc1.Nc1ccc(Cl)cc1.Nc1ccc(Cl)cc1.O=C([O-])C(=O)[O-].O=C([O-])C(=O)[O-].[H+].[Ru+5] | 0.927 µM | > 26.8 µM | > 78.6 µM | > 100 µM | > 100 µM | > 100 µM | > 100 µM | > 100 µM | 99.4 µM | > 100 µM | 0.124 µM | 21.9 µM | 3.56 µM | > 100 µM | – | > 100 µM | – | > 100 µM | 0.187 µM | > 100 µM |
| O=C(CCCCCCCCC(=O)OCCCn1cc(C(=O)NC(=O)OCc2ccccc2)c(=O)[nH]c1=O)OCCCn1cc(C(=O)NC(=O)OCc2ccccc2)c(=O)[nH]c1=O | – | > 100 µM | – | > 100 µM | – | > 100 µM | – | > 100 µM | – | > 100 µM | – | > 100 µM | – | > 100 µM | – | > 100 µM | – | > 100 µM | – | > 100 µM |
| COC1=C(NC(C)=O)C(=O)c2nc3n(c2C1=O)CCC3 | – | 47.1 µM | – | 41.2 µM | – | 33.2 µM | – | 32.8 µM | – | 49.4 µM | – | > 57.8 µM | – | > 66.6 µM | – | 66.2 µM | – | 53.4 µM | – | 42.4 µM |
| COc1ccc(NC(=O)CC(=O)n2nc(-c3ccccc3)c(N=Nc3ccc(C)cc3)c2-c2ccccc2)cc1 | – | 55.3 µM | – | 41.2 µM | – | 53.4 µM | – | > 100 µM | – | 58.3 µM | – | > 100 µM | – | 55.1 µM | – | > 100 µM | – | > 100 µM | – | > 100 µM |
| COC1=CC(=O)c2c(O)c3c(c(O)c2C1=O)CC(C)(O)OC3 (configuration not stated) | – | 15.2 µM | – | > 67.6 µM | – | > 100 µM | – | 4.53 µM | – | 37.2 µM | – | > 35.8 µM | – | 34.4 µM | – | 11.6 µM | – | 9.08 µM | – | 12.7 µM |
